Source: patent publication US12509421B2, “Preparation and application of deuterated 4-phenyl-4-piperidinols” (priority 2022, dated 2025)
Counter-ions that a name gives are not always drawn. Like-named read-outs stand apart in the source and are kept apart here.

Key:
ICR mice = assay: Evaluation of side effects of constipation (defecation time, number, weight); format: in vivo; settings: 7.5 mg/kg
Description: Constipation side effect is a common side effect of opioid drugs. This patent evaluates the possibility of constipation side effect by the influence of the compound on defecation time, defecation quantity and defecation weight of experimental animals.
ICR mice are randomly divided into 6 groups with 10 mice in each group after adaptive feeding. Fasting for 16-24 h, without stopping drinking, the blank control group is given solvent, during which the normal diet is: (1) the blank control group; (2) Compound diphenoxylate (7.5 mg/kg) group; (3) Low dose (1 mg/kg) group; (4) High dose (5 mg/kg) group of the compound to be tested.
After administration for 30 minutes, the mice in each group are given Chinese ink by gavage. After administration, the mice are kept in a single cage, and the excretion time of the first black stool is recorded. The number and weight (wet weight) of defecation particles in each mouse within 5 hours after administration are recorded. each group of mice are placed in an IVC cage with clean filter paper. The feces of each mouse are collected, put into a sterile 1.5 ml EP tube and stored in an ice box. During the collection, the number of defecation particles of each mouse is recorded, and the wet weight is weighed. After the collected feces are dried, the dry weight of the feces is recorded. Drying conditions: put fresh feces in an oven and bake at 100° C. for 5-10 minutes until the dry weight of feces is constant. The following formula is used to calculate the water content of feces, and the water content of feces (%)=(wet feces mass−dry feces mass)/wet feces mass×100%.
The data required for measurement and observation in this experiment are recorded in the corresponding table. All data are statistically processed by Microsoft Excel, and expressed as “mean standard error”. The data of each group are statistically analyzed by SPSS software package.

Female Kunming mice = assay: Hot plate analgesia test in mice; format: in vivo; settings: 55° C. hot plate; for ED50: Mus musculus, ip
Description: Female Kunming mice weighing about 20 g are placed on a hot plate instrument preheated to 55° C., and the latency of licking hind feet or lifting hind feet is used as the pain threshold index. Animals are screened before the experiment, and animals with latency less than 5 s or more than 30 s are excluded. To prevent foot burns, the longest observation time is set to 60s. The basic pain threshold is the average of two measurements, and the interval between the two measurements is 5 minutes. The pain threshold of mice in each group is determined at 15 minutes, 30 minutes, 60 minutes and 120 minutes after intraperitoneal administration. The effective percentage of analgesia (% MPE) is calculated according to the following formula
[formula] According to the effective percentage of analgesia, the ED50 value is calculated by graphpad prism 5.0 software.

κOR = biological target: T1, κOR (Homo sapiens, UniProt P41145); assay: Opioid receptor competitive binding test, κOR; settings: [3H]-labeled ligand, CHO cell membranes, ± SD of three measurements; for κOR binding rate: compound at 10 μM
T1 construct: expressed in transfected cells; host or cells: CHO cells
Description: (§1) CHO cells expressing p opioid receptor, δ opioid receptor and K opioid receptor are cultured in a 10 cm^2 Petri dish (F-12 medium+10% newborn bovine serum) for several days, and the culture solution is sucked after the cells grew to the bottom of the dish. 3 ml PBS/EDTA solution (0.1M NaCl, 0.01M NaH2PO4, 0.04% EDTA) is added for digestion for 3-5 minutes. The cells are blown with a straw to get fall off completely, collected in a 40 ml centrifuge tube, centrifuged at 5000 rpm for 5 minutes, and removed with the supernatant. The centrifuge tube is added with ice-cold homogenate (50 mM HEPES PH 7.4, 3 mM MgCl2, 1 mM EGTA). The solution and precipitate are transferred to homogenizer for homogenization; Then the homogenate is transferred into a centrifuge tube, centrifuged at 18000 rpm for 15 minutes, and centrifuged twice; the obtained precipitate is added with an appropriate amount of buffer solution of 50 mM Tris-HCl and pH 7.4, homogenized and sub-packaged in centrifuge tubes. The product is stored in a refrigerator at −70° C. for later use.
(§2) 20-30 μg expressed membrane receptor protein and [3H]-labeled ligand (1-2 nM) are added to the total binding tube, added with 1 μM of corresponding ligand to the corresponding nonspecific binding tube. Various screened opioid ligand drugs (see the drug compounds in Table 1 below) are added to the sample tube with 100 μL final volume. The sample is incubated at 30° C. for 30 minutes, and the reaction is terminated in ice water. The glass fiber filter paper gF/C (whatman) is used for negative pressure filtration on Millipore sample collector. The sample is eluted with 4 ml 50 mm tris-HCl (pH 7.4) for three times, dried with the filter paper, put in 0.5 ml Eppendorf tube and added with 0.5 ml lipophilic scintillation liquid. The radioactive intensity is measured with PERKIN ELMER PRI-CARB 2910 liquid scintillation counter with calculation of the inhibition rate. The experiment is repeated for more than three times, with three compound tubes in each group. Inhibition rate(or binding rate)=(total binding rate dpm−sample tube dpm)/(total binding tube dpm-nonspecific binding tube dpm)×100%
(§3) IC50 is calculated with Prism 5.0 software. The Ki value is calculated according to the following formula: Ki=IC50/(1^+[L]/Kd), wherein [L] is the concentration of the added labeled ligand, and Kd is the equilibrium dissociation parameter of the labeled ligand.

δOR = biological target: T2, δOR (Homo sapiens, UniProt P41143); assay: Opioid receptor competitive binding test, δOR; settings: [3H]-labeled ligand, CHO cell membranes, ± SD of three measurements; for δOR binding rate: compound at 10 μM
T2 construct: expressed in transfected cells; host or cells: CHO cells
Description: as §1, §2, §3

μOR = biological target: T3, μOR (Homo sapiens, UniProt P35372); assay: Opioid receptor competitive binding test, μOR; settings: [3H]-labeled ligand, CHO cell membranes, ± SD of three measurements; for μOR binding rate: compound at 10 μM
T3 construct: expressed in transfected cells; host or cells: CHO cells
Description: as §1, §2, §3

hERG potassium channel = hERG potassium channel (Homo sapiens, UniProt Q12809); assay: hERG potassium channel whole-cell patch clamp (HEK293); format: cell-based; parameters: expressed in transfected cells; host or cells: HEK293 cell line; settings: for IC50: HEK293 cells stably expressing hERG, whole-cell patch clamp, room temperature, read-out: Half-inhibition concentration of compounds to be tested on hERG (IC50)
Excerpt: The rapidly activated potassium channel encoded by human ether-a-go-go-related gene (hERG) is an important ion channel involved in the formation of phase 3 repolarization of myocardial action potential. […] Drug-induced delayed ventricular repolarization may cause fatal arrhythmia-torsade de pointes in some cases. According to statistics, about 25-40% of the lead compounds show different degrees of hERG-related toxicity, and many drugs are withdrawn from the market because they may lead to the risk of QT interval extension. At present, National Medical Products Administration also requires hERG/IKr safety evaluation data before clinical trial application (IND) of new drugs under study. • 1. Whole-cell patch clamp technique is used to study the inhibitory effect of compounds on hERG potassium channels: • 1) the compound to be tested is stored with physiological saline prepared into 10 mM liquid. The test stock solution is diluted with physiological saline into 3 mM, 1 mM and 0.3 mM diluents in turn. […] The old culture medium removed and is washed once with PBS, then added with 1 mL TrypLE™ Express solution and incubated at 37° C. for about 0.5 minutes. When the cells are detached from the bottom of the dish, about 5 ml complete medium preheated is added at 37° C. The cell suspension is gently blown with a straw to separate the aggregated cells. The cell suspension is transferred to a sterile centrifuge tube and centrifuged at 1000 rpm for 5 minutes to collect cells. […] The clamping voltage is depolarized from −80 mV to −50 mV for 0.5 seconds (as leakage current detection), then stepped to 30 mV for 2.5 seconds, and then quickly recovered to −50 mV for 4 seconds, which can excite the tail current of hERG channel. Data are collected repeatedly every 10s to observe the effect of drugs on hERG tail current. 0.5 seconds-50 mV stimulation is used as leakage current detection. The test data are collected by IPA amplifier (Sutter Instrument) and stored in SutterPatch software.
Capillary glass tube is drawn into recording electrode by microelectrode drawing instrument. Under the inverted microscope, the microelectrode manipulator is operated to contact the recording electrode with the cell, and negative pressure suction is given to form a GΩ seal. After the GΩ seal is formed, rapid capacitance compensation is carried out, and then negative pressure is continuously applied to break the cell membrane, forming a whole cell recording mode. Then the slow capacitance is compensated and the film capacitance and series resistance are recorded. No leakage compensation is given.
When the hERG current recorded in the whole cell is stable, the drug is administered, and the next concentration is detected after each drug concentration acts for 5 minutes (or the current is stable), and multiple concentrations are detected for each test compound. The cover glass covered with cells is placed in the recording bath in an inverted microscope, and the test compound and the external liquid containing no compound flowed through the recording bath from low concentration to high concentration by gravity perfusion method, so as to act on the cells, and liquid exchange is carried out by using a vacuum pump during recording. The current detected by each cell in the external fluid without compounds is used as its own control group.
At least two cells are used to detect each concentration independently and repeatedly twice. All electrophysiological tests are conducted at room temperature.
Firstly, the current after each drug concentration and the blank control current are standardized
[formula] followed by the calculation of the inhibition rate
[formula] corresponding to each drug concentration, the average and standard deviation for each concentration, and the semi-inhibition concentration of each compound with the following equation: […]
The dose-dependent effect is nonlinear fitted by the above equation, and IC50 is semi-inhibitory concentration.

Molecule: CCOC(=O)C1(c2ccccc2)CCN(CCC(C#N)(c2ccccc2)c2ccccc2)CC1 [Diphenoxylate, reference compound]
- Number of defecating animals (ICR mice; 10 mice per group, within 5 hours): 10
- Defecation time (ICR mice; first black stool, x ± SE, only animals that defecate within 5 hours): 148.4 ± 7.9 min
- water content of feces (ICR mice; only animals that defecate within 5 hours, x ± SE): 41.4 ± 3.7%
- Fecal weight (ICR mice; within 5 hours, x ± SE): 0.3005 ± 0.0289 g

Molecule: [2H]C([2H])([2H])N(C)CC1CN(S(=O)(=O)Cc2ccccc2)CCC1(O)c1cccc(OC)c1 (centres unmarked) [I-1hydrochloride]
- ED50 (Female Kunming mice; intraperitoneal): 0.62 mg/kg
- κOR binding rate (κOR): 22.5 ± 3.2%
- δOR binding rate (δOR): 11.4 ± 1.7%
- μOR binding rate (μOR): 23.95 ± 3.8%
- hERG inhibition grade (hERG potassium channel): μM((Weak inhibition)
- IC50 (hERG potassium channel): 12900 nM

Molecule: CN(C)C[C@@H]1CN(S(=O)(=O)Cc2ccccc2)CC[C@@]1(O)c1cccc(O)c1.Cl [Example 22 of CN201911076305.X, (3R, 4S)-1-(benzylsulfonyl)-3-(dimethylamino)methyl)-4-(3-hydroxyphenyl)-4-piperidinol hydrochloride, reference compound]
- Ki (κOR): 33.7 ± 3.26 nM
- Ki (δOR): 1100 ± 42 nM
- Ki (μOR): 0.17 nM

Molecule: CN(C)C[C@@H]1CN(S(=O)(=O)Cc2ccccc2)CC[C@@]1(O)c1cccc(O)c1.Cl [Example 22 of CN201911076305.X, reference compound]
- hERG inhibition grade (hERG potassium channel; listed as Example 22 of patent CN201911076305.X, hydrochloride): moderate inhibitory effects on hERG
- hERG inhibition grade (hERG potassium channel; listed as example 22 of the prior art of CN201911076305.X, hydrochloride): μM(Moderate intensity inhibition)

Molecule: [2H]C([2H])([2H])Oc1cccc(C2(O)CCN(S(=O)(=O)Cc3ccccc3)CC2CN(C)C([2H])([2H])[2H])c1 (centres unmarked) [I-2hydrochloride]
- Maximum analgesic effective percentage (% MPE), hot plate (Female Kunming mice; 10 mg/kg, intraperitoneal): 100%
- κOR binding rate (κOR): 23.8 ± 1.9%
- δOR binding rate (δOR): 10.9 ± 1.2%
- μOR binding rate (μOR): 24.75 ± 3.1%

Molecule: [2H]C([2H])([2H])Oc1cccc(C2(O)CCN(C(=O)Cc3cc(F)c(F)cc3F)CC2CN(C)C([2H])([2H])[2H])c1 (centres unmarked) [I-6hydrochloride]
- Maximum analgesic effective percentage (% MPE), hot plate (Female Kunming mice; 10 mg/kg, intraperitoneal): 100%
- κOR binding rate (κOR): 20.5 ± 2.3%
- δOR binding rate (δOR): 11.6 ± 1.7%
- μOR binding rate (μOR): 21.0 ± 3.0%

Molecule: COc1cccc(C2(O)CCCCC2CN(C)C)c1 (centres unmarked) [Tramadol, reference compound]
- Maximum analgesic effective percentage (% MPE), hot plate (Female Kunming mice; 50 mg/kg dosage): 64.5% ((50 mg/kg/dosage)
- κOR binding rate (κOR): 0%
- δOR binding rate (δOR): 0%
- μOR binding rate (μOR): 6.0 ± 0.4%

Molecule: [2H]C([2H])([2H])Oc1cccc([C@]2(O)CCN(S(=O)(=O)Cc3ccccc3)C[C@H]2CN(C)C([2H])([2H])[2H])c1 [II-6hydrochloride]
- ED50 (Female Kunming mice; intraperitoneal): 0.79 mg/kg
- κOR binding rate (κOR): 14.5 ± 3.1%
- δOR binding rate (δOR): 10.5 ± 1.7%
- μOR binding rate (μOR): 28.4 ± 2.0%

Molecule: [2H]C([2H])([2H])Oc1cccc([C@]2(O)CCN(C(=O)Cc3cc(F)c(F)cc3F)C[C@H]2CN(C)C([2H])([2H])[2H])c1 [II-12hydrochloride]
- Maximum analgesic effective percentage (% MPE), hot plate (Female Kunming mice; 10 mg/kg, intraperitoneal): 100%
- κOR binding rate (κOR): 13.6 ± 1.9%
- δOR binding rate (δOR): 12.0 ± 3.3%
- μOR binding rate (μOR): 26.3 ± 1.2%

Molecule: (3R,4S)-1-(benzylsulfonyl)-4-(3-hydroxyphenyl)-3-(((methyl(methyl-d3)amino)methyl)-4-piperidinol [II-2hydrochloride]
- Ki (κOR): 25.6 ± 2.72 nM
- Ki (δOR): 482 ± 28.4 nM
- Ki (μOR): 0.12 nM
- hERG inhibition grade (hERG potassium channel): μM((Weak inhibition)
- IC50 (hERG potassium channel; listed as II-2): 25100 nM
- IC50 (hERG potassium channel; listed as Il-2hydrochloride): 14700 nM
